Test results from US8354432B2, “Cyclic derivatives as modulators of chemokine receptor activity” (Bristol-Myers Squibb Company, priority 2006, dated 2013).

molecular target: T1, CCR1 (Homo sapiens, UniProt P32246); assay: Antagonism of MIP-1α binding to human THP-1 cells (CCR1 binding); settings: not given
T1 construct: the THP-1 cell line, which expresses the endogenous CCR1 receptor; endogenous in cells; host or cells: THP-1 cells (human monocytic line); the text also allows human PBMC or human monocytes
T1 sequence (P32246 1-355): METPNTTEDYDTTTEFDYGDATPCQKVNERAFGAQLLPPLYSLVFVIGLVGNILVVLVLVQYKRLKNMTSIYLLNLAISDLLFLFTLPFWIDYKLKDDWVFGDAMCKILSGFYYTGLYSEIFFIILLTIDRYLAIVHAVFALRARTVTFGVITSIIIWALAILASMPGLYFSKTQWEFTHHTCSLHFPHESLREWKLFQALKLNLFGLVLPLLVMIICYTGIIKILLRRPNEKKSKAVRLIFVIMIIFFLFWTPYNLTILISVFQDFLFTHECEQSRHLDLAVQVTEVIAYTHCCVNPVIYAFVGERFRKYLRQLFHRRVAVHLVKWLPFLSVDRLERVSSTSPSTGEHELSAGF
Description: Antagonism of MIP-1α Binding to Human THP-1 Cells
Compounds of the present invention have activity in the antagonism of MIP-1α binding to human THP-1 cells described here.
Millipore filter plates (#MABVN1250) are treated with 100 μl of binding buffer (0.5% bovine serum albumin, 20 mM HEPES buffer and 5 mM magnesium chloride in RPMI 1640 media) for thirty minutes at room temperature. To measure binding, 50 μl of binding buffer, with or without a known concentration of compound, is combined with 50 μl of ^125-I labeled human MIP-1α (to give a final concentration of 50 pM radioligand) and 50 μl of binding buffer containing 5×10^5 cells. Cells used for such binding assays can include the THP-1 cell line, which expresses the endogenous CCR1 receptor, or human peripheral blood mononuclear cells, isolated by Ficoll-Hypaque gradient centrifugation, or human monocytes (Weiner et al., J. Immunol. Methods, 1980, 36, 89). The mixture of compound, cells and radioligand is incubated at room temperature for thirty minutes. Plates are placed onto a vacuum manifold, vacuum applied, and the plates washed three times with binding buffer containing 0.5M NaCl. The plastic skirt is removed from the plate, the plate allowed to air dry, the wells punched out and counted. The percent inhibition of binding is calculated using the total counts obtained in the absence of any competing compound and the background binding determined by addition of 100 nM MIP-1α in place of the test compound.

Compound | Ki [nM]
COc1cc(N2CCC(C(Cn3nc(C(F)(F)F)c(Cl)c3C)NC(=O)CF)CC2)c(Cl)cc1Cl (racemic) [Example 4p, N-(2-(4-Chloro-5-methyl-3-(trifluoromethyl)-1H-pyrazol-1-yl)-1-(1-(2,4-dichloro-5-methoxyphenyl)piperidin-4-yl)ethyl)-2-fluoroacetamide] | 4.3

same assay, conditions: 125-I labeled human MIP-1α (50 pM), THP-1 cells expressing endogenous CCR1, room temperature, thirty minutes; read-out: CCR1 Binding Ki (n = 1 unless otherwise noted)

Compound | Ki [nM]
COc1cc(N2CCC(C(Cn3nc(C(F)(F)F)c(Cl)c3C)NC(=O)[C@@H](C)O)CC2)c(Cl)cc1Cl (mixture of isomers) [Example 4n, (2R)-N-(2-(4-Chloro-5-methyl-3-(trifluoromethyl)-1H-pyrazol-1-yl)-1-(1-(2,4-dichloro-5-methoxyphenyl)piperidin-4-yl)ethyl)-2-hydroxypropanamide] | 3.46 ± 0.48
COc1cc(N2CCC(C(O)Cn3nc(N)c4cccnc43)CC2)ccc1Cl (racemic) [Example 2c, 2-(3-Amino-1H-pyrazolo[3,4-b]pyridin-1-yl)-1-(1-(4-chloro-3-methoxyphenyl)piperidin-4-yl)ethanol] | ~2220
COc1cc(N2CCC(C(O)Cn3nc(C(F)(F)F)nc3C)CC2)ccc1Cl (racemic) [Example 2h, 1-(1-(4-Chloro-3-methoxyphenyl)piperidin-4-yl)-2-(5-methyl-3-(trifluoromethyl)-1H-1,2,4-triazol-1-yl)ethanol] | 156
COc1cc(N2CCC(C(N)Cn3nc(C(F)(F)F)c(Cl)c3C)CC2)c(Cl)cc1Cl (racemic) [Example 4a, 2-(4-Chloro-5-methyl-3-(trifluoromethyl)-1H-pyrazol-1-yl)-1-(1-(2,4-dichloro-5-methoxyphenyl)piperidin-4-yl)ethanamine] | 125
COc1cc(N2CCC(C(Cn3nc(C(F)(F)F)c(Cl)c3C)NC(C)=O)CC2)c(Cl)cc1Cl (racemic) [Example 4c, N-(2-(4-Chloro-5-methyl-3-(trifluoromethyl)-1H-pyrazol-1-yl)-1-(1-(2,4-dichloro-5-methoxyphenyl)piperidin-4-yl)ethyl)acetamide] | 6.8
COc1cc(N2CCC(C)(C(O)Cn3nc(C(F)(F)F)c(Cl)c3C)CC2)ccc1Cl (racemic) [Example 11, 1-(1-(4-Chloro-3-methoxyphenyl)-4-methylpiperidin-4-yl)-2-(4-chloro-5-methyl-3-(trifluoromethyl)-1H-pyrazol-1-yl)ethanol] | ~1250
COc1cccc(N2CCC(C(O)Cn3nc(C(F)(F)F)c(Cl)c3C)CC2)c1 (racemic) [Example 15b, 2-(4-Chloro-5-methyl-3-(trifluoromethyl)-1H-pyrazol-1-yl)-1-(1-(3-methoxyphenyl)piperidin-4-yl)ethanol] | 1020
COc1cc(N2CCC(C(Cn3nc(C(F)(F)F)cc3C)NC(=O)CN)CC2)ccc1Cl (single isomer, unassigned) [Example 5c, 2-amino-N-(1-(1-(4-chloro-3-methoxyphenyl)piperidin-4-yl)-2-(5-methyl-3-(trifluoromethyl)-1H-pyrazol-1-yl)ethyl)acetamide] | 145
COc1cc(N2CCC(C(Cn3nc(C(F)(F)F)c(Cl)c3C)NC(=O)CO)CC2)c(Cl)cc1Cl (centres unmarked) [Example 4i, N-(2-(4-Chloro-5-methyl-3-(trifluoromethyl)-1H-pyrazol-1-yl)-1-(1-(2,4-dichloro-5-methoxyphenyl)piperidin-4-yl)ethyl)-2-hydroxyacetamide] | 5.15 ± 1.68
N-(1-(1-(4-chloro-3-methoxyphenyl)piperidin-4-yl)-2-(5-methyl-3-(trifluoromethyl)-1H-pyrazol-1-yl)ethyl)-2-hydroxyacetamide [Example 5b] | ~2200
